Measured values from patent US6177438A, “Morphinan derivatives and pharmaceutical use thereof” (priority 1993, dated 2001).
Structures can show the parent of a compound that is named as a salt.

The compounds below were run on acetic acid-induced writhing in ddy mice (assay: animal or person). Conditions: Mus musculus, sc, s.c. 15 minutes before acetic acid, read-out: ED50.
Format: in vivo, 5 week old ddy mice
Description: 5 week old ddy mice were used in this test. After intraperitoneal administration of 0.1 ml of 0.6% aqueous acetic acid per 10 g of body weight, the number of writhing reactions that occurred in 10 minutes starting 10 minutes after administration was evaluated for the indicator. The test drug was administered subcutaneously into the backs of the animals 15 minutes before administration of acetic acid.
Compound `CN(C(=O)OCc1cccnc1)[C@H]1CC[C@@]2(O)[C@H]3Cc4ccc(O)c5c4[C@@]2(CCN3CC2CC2)[C@H]1O5` [Compound 44, 17-cyclopropylmethyl-4,5α-epoxy-3,14β-dihydroxy-6α-[N-methyl-(3-pyridyl)methyloxycarbamido]morphinan.cndot.tartrate] has an ED50 of 0.084 mg/kg. With `COCCOC(=O)N(C)[C@H]1CC[C@@]2(O)[C@H]3Cc4ccc(O)c5c4[C@@]2(CCN3CC2CC2)[C@H]1O5` [Compound 49, 17-cyclopropylmethyl-4,5α-epoxy-3,14β-dihydroxy-6α-(N-methyl-2-methoxyethoxycarbamido)morphinan.cndot.tartrate] the ED50 was 0.026 mg/kg. In the case of `CN(C(=O)/C=C/c1ccoc1)[C@@H]1CC[C@@]2(O)[C@H]3Cc4cccc5c4[C@@]2(CCN3CC2CC2)[C@H]1O5` [Compound 204, 17-cyclopropylmethyl-4,5α-epoxy-14-hydroxy-6β-[N-methyl-trans-3-(3-furan)acrylamido]morphinan hydrochloride], the ED50 is reported as 0.013 mg/kg. With `CN(C(=O)/C=C/c1ccc(Cl)c(Cl)c1)[C@@H]1CC[C@@]2(O)[C@H]3Cc4ccc(O)c5c4[C@@]2(CCN3CC2CC2)[C@H]1O5` [Compound 179, 17-cyclopropylmethyl-3,14β-dihydroxy-4,5α-epoxy-6β-(N-methyl-3,4-dichlorocinnamamido)morphinan hydrochloride] the ED50 was 0.0028 mg/kg. `Cc1occc1/C=C/C(=O)N(C)[C@@H]1CC[C@@]2(O)[C@H]3Cc4ccc(O)c5c4[C@@]2(CCN3CC2CC2)[C@H]1O5.Cl` (relative stereo) [Compound 159, 17-cyclopropylmethyl-3,14β-dihydroxy-4,5α-epoxy-6β-[N-methyl-trans-3-(2-methyl-3-furyl)acrylamido]morphinan hydrochloride] was tested, and the ED50 was 0.0032 mg/kg. For `Cc1ccc(C#CC(=O)N(C)[C@H]2CC[C@@]3(O)[C@H]4Cc5ccc(O)c6c5[C@@]3(CCN4CC3CC3)[C@H]2O6)cc1.Cl` [Compound 183, 17-cyclopropylmethyl-3,14β-dihydroxy-4,5α-epoxy-6α-[N-methyl-3-(4-methylphenyl)propiolamido]morphinan hydrochloride], the ED50 was 0.013 mg/kg. For `CN([C@H]1CC[C@@]2(O)[C@H]3Cc4ccc(O)c5c4[C@@]2(CCN3CC2CC2)[C@H]1O5)S(=O)(=O)Cc1ccc(Cl)c(Cl)c1` [Compound 128, 17-cyclopropylmethyl-4,5α-epoxy-3,14β-dihydroxy-6α-(N-methyl-3,4-dichlorophenylmethanesulfonamido)morphinan.cndot.tartrate], the ED50 was 0.63 mg/kg. `C/C(=C\C(=O)N(C)[C@@H]1CC[C@@]2(O)[C@H]3Cc4ccc(O)c5c4[C@@]2(CCN3CC2CC2)[C@H]1O5)c1ccccc1` [Compound 162, 17-cyclopropylmethyl-3,14β-dihydroxy-4,5α-epoxy-6β-(N-methyl-γ-methylcinnamamido)morphinan tartrate] was tested, and the ED50 was 0.018 mg/kg. Compound `CN(C(=O)/C=C/c1cccnc1)[C@@H]1CC[C@@]2(O)[C@H]3Cc4ccc(O)c5c4[C@@]2(CCN3CC2CC2)[C@H]1O5.O=C(O)C(O)C(O)C(=O)O` (relative stereo) [Compound 153, 17-cyclopropylmethyl-3,14β-dihydroxy-4,5α-epoxy-6β-[N-methyl-trans-3-(3-pyridyl)acrylamido]morphinan tartrate] has an ED50 of 0.13 mg/kg. With `Cc1ccc(/C=C/C(=O)N(C)[C@@H]2CC[C@@]3(O)[C@H]4Cc5ccc(O)c6c5[C@@]3(CCN4CC3CC3)[C@H]2O6)o1.Cl` (relative stereo) [Compound 158, 17-cyclopropylmethyl-3,14β-dihydroxy-4,5α-epoxy-6β-[N-methyl-trans-3-(5-methyl-2-furyl)acrylamido]morphinan hydrochloride] the ED50 was 0.0071 mg/kg. Compound `CN(C(=S)NCc1ccccc1)[C@@H]1CC[C@@]2(O)[C@H]3Cc4ccc(O)c5c4[C@@]2(CCN3CC2CC2)[C@H]1O5` [Compound 134, 17-cyclopropylmethyl-3,14β-dihydroxy-4,5α-epoxy-6β-(N-methyl-N'-benzylthioureido)morphinan.cndot.tartrate] has an ED50 of 0.15 mg/kg. Compound `CN(C(=O)CCc1cccnc1)[C@H]1CC[C@@]2(O)[C@H]3Cc4ccc(O)c5c4[C@@]2(CCN3CC2CC2)[C@H]1O5` [Compound 41, 17-cyclopropylmethyl-3,14β-dihydroxy-4,5α-epoxy-6α-[N-methyl-3-(3-pyridyl)propionamido]morphinan.cndot.tartrate] has an ED50 of 0.39 mg/kg. In the case of `CN(C(=O)Cc1ccc([N+](=O)[O-])cc1)[C@H]1CC[C@@]2(O)[C@H]3Cc4ccc(O)c5c4[C@@]2(CCN3CC2CC2)[C@H]1O5` [Compound 87, 17-cyclopropylmethyl-3,14β-dihydroxy-4,5α-epoxy-6α-(N-methyl-4-nitrophenylacetamido)morphinan.cndot.hydrochloride], the ED50 is reported as 0.027 mg/kg. For `CN(C(=O)Cc1ccc(N)cc1)[C@H]1CC[C@@]2(O)[C@H]3Cc4ccc(O)c5c4[C@@]2(CCN3CC2CC2)[C@H]1O5` [Compound 137, 17-cyclopropylmethyl-3,14β-dihydroxy-4,5α-epoxy-6α-(N-methyl-4-aminophenylacetamido)morphinanan.cndot.1.6 hydrochloride], the ED50 was 0.17 mg/kg. In the case of `CN(C(=O)Cc1cccc(N)c1)[C@H]1CC[C@@]2(O)[C@H]3Cc4ccc(O)c5c4[C@@]2(CCN3CC2CC2)[C@H]1O5` [Compound 138, 17-Cyclopropylmethyl-3,14β-dihydroxy-4,5α-epoxy-6α-(N-methyl-3-aminophenylacetamido)morphinan.cndot.1.1 tartrate], the ED50 is reported as 0.014 mg/kg. `CN(C(=O)Cc1ccccc1)[C@@H]1CC[C@@]2(O)[C@H]3Cc4ccc(O)c5c4[C@@]2(CCN3CC2CC2)[C@H]1O5` [Compound 55, 17-cyclopropylmethyl-3,14β-dihydroxy-4,5α-epoxy-6β-(N-methylphenylacetamido)morphinan.cndot.hydrochloride] showed an ED50 of 0.98 mg/kg. Compound `CN(C(=O)C#Cc1ccoc1)[C@H]1CC[C@@]2(O)[C@H]3Cc4ccc(O)c5c4[C@@]2(CCN3CC2CC2)[C@H]1O5.O=C(O)C(O)C(O)C(=O)O` [Compound 188, 17-cyclopropylmethyl-3,14β-dihydroxy-4,5α-epoxy-6α-[N-methyl-(3-furyl)propiolamido]morphinan tartrate] has an ED50 of 0.002 mg/kg. With `CN(C(=O)CCCCc1ccccc1)[C@@H]1CC[C@@]2(O)[C@H]3Cc4ccc(O)c5c4[C@@]2(CCN3CC2CC2)[C@H]1O5` [Compound 203, 17-cyclopropylmethyl-3,14β-dihydroxy-4,5α-epoxy-6β-(N-methyl-5-phenylpentanoamido)morphinan hydrochloride] the ED50 was 0.38 mg/kg. `CN(C(=O)CCC1CCCC1)[C@@H]1CC[C@@]2(O)[C@H]3Cc4ccc(O)c5c4[C@@]2(CCN3CC2CC2)[C@H]1O5` [Compound 64, 17-cyclopropylmethyl-3,14β-dihydroxy-4,5α-epoxy-6β-(N-methyl-3-cyclopentylpropionamido)morphinan.cndot.tartrate] showed an ED50 of 0.097 mg/kg. With `CO[C@H](C(=O)N(C)[C@H]1CC[C@@]2(O)[C@H]3Cc4ccc(O)c5c4[C@@]2(CCN3CC2CC2)[C@H]1O5)c1ccccc1` [Compound 31, 17-cyclopropylmethyl-3,14β-dihydroxy-4,5α-epoxy-6α-[(S)-N-methylmethoxyphenylacetamido]morphinan.cndot.hydrochloride] the ED50 was 0.75 mg/kg. `CN(C(=O)CC1CCCCC1)[C@H]1CC[C@@]2(O)[C@H]3Cc4ccc(O)c5c4[C@@]2(CCN3CC2CC2)[C@H]1O5` [Compound 85] was tested, and the ED50 was 0.113 mg/kg. `CN(C(=O)Cc1cccc2sccc12)[C@H]1CC[C@@]2(O)[C@H]3Cc4ccc(O)c5c4[C@@]2(CCN3CC2CC2)[C@H]1O5` [Compound 106, 17-cyclopropylmethyl-3,14β-dihydroxy-4,5α-epoxy-6α-(N-methyl-4-benzo[b]thienylacetamido)morphinan.cndot.hydrochloride] showed an ED50 of 0.25 mg/kg. For `CN(C(=O)CCCCCc1ccccc1)[C@@H]1CC[C@@]2(O)[C@H]3Cc4ccc(O)c5c4[C@@]2(CCN3CC2CC2)[C@H]1O5` [Compound 202, 17-cyclopropylmethyl-3,14β-dihydroxy-4,5α-epoxy-6β-(N-methyl-6-phenylhexanoamido)morphinan hydrochloride], the ED50 was 0.083 mg/kg. In the case of `CN(C(=O)C#Cc1ccco1)[C@H]1CC[C@@]2(O)[C@H]3Cc4ccc(O)c5c4[C@@]2(CCN3CC2CC2)[C@H]1O5.O=C(O)C(O)C(O)C(=O)O` [Compound 186, 17-cyclopropylmethyl-3,14β-dihydroxy-4,5α-epoxy-6α-[N-methyl-3-(2-furyl)propiolamido]morphinan tartrate], the ED50 is reported as 0.0061 mg/kg. With `CN(C(=O)/C=C/c1ccsc1)[C@@H]1CC[C@@]2(O)[C@H]3Cc4ccc(O)c5c4[C@@]2(CCN3CC2CC2)[C@H]1O5` [Compound 71, 17-cyclopropylmethyl-3,14β-dihydroxy-4,5α-epoxy-6β-[N-methyl-trans-3-(3-thienyl)acrylamido]morphinan.cndot.methanesulfonate] the ED50 was 0.0042 mg/kg. `CC(=O)Oc1ccc2c3c1O[C@H]1[C@@H](N(C)C(=O)Cc4ccc(Cl)c(Cl)c4)CC[C@@]4(O)[C@@H](C2)N(CC2CC2)CC[C@]314` [Compound 139, 17-Cyclopropylmethyl-3-acetoxy-4,5α-epoxy-14β-hydroxy-6α-(N-methyl-3,4-dichlorophenylacetamido)morphinan.cndot.hydrochloride] was tested, and the ED50 was 0.04 mg/kg.

Same assay, conditions: s.c. 15 minutes before acetic acid
Work on `Cc1ccc(/C=C/C(=O)N(C)[C@@H]2CC[C@@]3(O)[C@H]4Cc5ccc(O)c6c5[C@@]3(CCN4CC3CC3)[C@H]2O6)s1.O=C(O)C(O)C(O)C(=O)O` (relative stereo) [Compound 160, 17-cyclopropylmethyl-3,14β-dihydroxy-4,5α-epoxy-6β-[N-methyl-trans-3-(5-methyl-2-thienyl)acrylamido]morphinan tartrate] yielded an ED50 of 0.0027 mg/kg. With `Cc1ccc(C#CC(=O)N(C)[C@@H]2CC[C@@]3(O)[C@H]4Cc5ccc(O)c6c5[C@@]3(CCN4CC3CC3)[C@H]2O6)cc1.Cl` [Compound 171, 17-cyclopropylmethyl-3,14β-dihydroxy-4,5α-epoxy-6β-[N-methyl-3-(4-methylphenyl)propiolamido]morphinan hydrochloride] the ED50 was 0.038 mg/kg.
